Source: paper PMC6143478, “Lipophilic activated ester prodrug approach for drug delivery to the intestinal lymphatic system” (Journal of Controlled Release, 2018)
Entries after “also recorded” stand apart in the source; their conditions may differ.

What was measured:
[1] = Prodrug conversion assay in rat plasma; assay type: in vitro ADME
Method: (§1) The prodrugs were tested for their stability and conversion into their corresponding active drug using fasted state simulated intestinal fluid (FaSSIF) with added esterase enzyme activity (20 IU/mL), rat plasma, and postprandial rat lymph. The FaSSIF was prepared as previously described in the literature. The medium was pre-heated to 37 °C prior to the assay for 5 min. The experiment was initiated by spiking stock solutions of prodrugs to give a final concentration of 10 μM of the prodrugs in the medium. When the stability of the artificial emulsion-associated prodrugs was tested in plasma, the association of compounds with artificial emulsion was performed prior to stability experiments and the concentrations of the compounds in the associated emulsion were measured. The emulsion was then spiked to give a concentration of 10 μM of the prodrugs in plasma. The reaction mixtures were incubated at 37 °C and shaken at 200 rpm on a temperature-controlled orbital shaker (Thermo Scientific MaxQ4000, Waltham, MA, USA) for 4 h. Samples were withdrawn at pre-determined time points, and the reaction was terminated by addition of acetonitrile. The samples were then subjected to sample preparation and analysis as described below. The natural log percentage of the prodrug concentration was plotted against incubation time, and the slope (k) was obtained from the plot. Half-life of active drug release (t1/2) was calculated by the following equation: t1/2 = −0.693/k. All experiments were conducted in triplicate.

[2] = Biodistribution to mesenteric lymph nodes (MLN) and lymph following oral administration in rats; assay type: in vivo; settings: rat
Method: The protocols for pharmacokinetic and biodistribution experiments in this study were reviewed and approved by the University of Nottingham Ethical Review Committee in accordance with the Animals [Scientific Procedures] Act 1986. Male Sprague Dawley rats (Charles River Laboratories, UK) weighing 350–380 g were used. The animals were housed in the Bio Support Unit, University of Nottingham. Continuous lymph collection was performed according to a protocol approved by the Institutional Animal Care and Use Committee at Rutgers, The State University of New Jersey. Male Sprague Dawley rats (Envigo, Inc., NJ, USA) weighing 300–350 g were used for the continuous lymph collection. Animals were allowed free access to food and water and were acclimatised for at least 6 days prior to any procedures at both institutions in a controlled-temperature environment with 12 h light/dark cycles.
Formulations were prepared as described in the above pharmacokinetic study and were delivered by an oral gavage. Animals were euthanised at pre-determined time points. Blood was collected from the posterior vena cava and lymph samples were taken from the mesenteric lymph duct. MLNs were dissected and collected as previously described. The MLNs were isolated from surrounding tissue with care not to compromise the integrity of the lymph nodes. The MLNs were homogenised (POLYTRON® PT 10–35 GT, Kinematica AG, Luzern, Switzerland) with 10 mg/mL NaF in water (1,2, w/v) on an ice bath prior to sample preparation for HPLC analysis.
A combination of protein precipitation and liquid-liquid extraction was applied to samples prior to HPLC injection. To 100 μL sample, 300 μL of acetonitrile was added for protein precipitation and then 300 μL of pH modifier was added when necessary (Supplementary Material Table S2). […] The organic layer was separated and evaporated under N2 gas. Reconstitution solvent (100 μL) was used as detailed in Supplementary Material Table S2 and 40 μL was injected into the HPLC-UV system. […] Therefore, storage and preparation of all samples were performed within the time frame and conditions of confirmed stability.
The HPLC-UV system consisting of a separation module (Waters Alliance 2695) equipped with a UV detector (Waters 996) was used for analysis. Samples in the autosampler were maintained at 4 °C and the column at 40 °C. The stationary and mobile phases were used as specified in Supplementary Material Table S2. BEX and its prodrugs were detected at 259 nm and RA and its prodrugs at 357 nm.

human chylomicrons (CM) = assay: Ex vivo association with human plasma-derived chylomicrons; assay type: in vitro ADME; settings: in words; for association with human chylomicrons (CM): 1.755 μM, 37 °C, 1 h, relative to parent drug
Text: The protocol for preparation of human plasma-derived CM emulsion was approved by the Faculty of Medicine and Health Sciences Research Ethics Committee, Queens Medical Centre, Nottingham University Hospitals (BT12102015 CBS SoP). Healthy male volunteers of 19–40 years old and with body mass index of 18.5–25.0 were enrolled in the study after providing informed consent. The participants were excluded if any medication was used within one week prior to enrolment. On the morning of the study, participants received a high-fat meal (equivalent to a full English breakfast). Between 3 and 4 h following breakfast, 30 mL of blood was collected using heparinised tubes (Vacutainer® Blood Collection Tubes) and centrifuged (800 g, 10 min, 15 °C) to obtain plasma.
CM separation was performed as previously reported with minor modifications. Briefly, KBr (0.57 g) was mixed with 4 mL of plasma to yield density of 1.1 g/mL. PBS with densities of 1.006, 1.019, and 1.063 g/mL were prepared by adding appropriate amounts of KBr. These PBS of different densities were layered on top of the plasma to build density gradient layers in polyallomer ultracentrifuge tubes. The samples were then centrifuged at 268,350 g for 35 min at 15 °C using an ultracentrifuge (SORVALL® TH-641 Rotor, Thermo Fisher Scientific, UK). Following ultracentrifugation, approximately 1 mL of the upper layer containing CM was collected. TG concentration of CM emulsion was assessed using the TG enzymatic kit (Sigma Aldrich, Dorset, UK). TG concentration of the emulsion was adjusted to 100 mg/dL by diluting with PBS of 1.006 g/mL density. The CM emulsion was stored at 4 °C until the association assay (˂24 h).
(§2) The association of the compounds with artificial lipid particle emulsion and human CM was assessed using previously reported methodology with minor modifications. Briefly, 1 mL of artificial lipid particle or CM emulsions (TG concentration 100 mg/dL) was used for the association assay. The emulsion was spiked with stock solutions of tested compounds (in acetonitrile) to give a final concentration of 1.755 μM. The reaction mixtures were incubated at 37 °C for 1 h with magnetic stirring at 300 rpm. Following the incubation, density gradient ultracentrifugation was applied as described above to isolate the artificial lipid particles or CM associated with the tested compounds from the rest of the experimental medium. All experiments were conducted in quintuplicates or above.

[3] = In vitro association with artificial lipid particle emulsion prepared from Intralipid; assay type: in vitro ADME; settings: TG 100 mg/dL, 1.755 μM, 37 °C, 1 h, in words, relative to parent drug
Method: To prepare the artificial lipid particle emulsion, Intralipid® 20% (Sigma, Gillingham, UK) was diluted using phosphate buffered saline (PBS) to yield 100 mg/dL of triglyceride (TG) concentration. A TG enzymatic kit (Sigma Aldrich, Dorset, UK) was used to monitor the TG concentration by following manufacturer's instructions.
as §2

[4] = tested on: esterase from porcine liver; assay: Prodrug conversion assay in FaSSIF with added esterase activity; assay type: in vitro ADME; settings: esterase 20 IU/mL, 10 μM, 37 °C, 4 h; in words
Method: BEX was purchased from LC Laboratories (Woburn, MA, USA). RA (all-trans), Intralipid®, esterase from porcine liver, sodium taurocholate (NaTc), NaCl, NaF and lecithin were obtained from Sigma (Gillingham, UK). Rat plasma was purchased from Sera Laboratories (West Sussex, UK). Thiazolyl blue tetrazolium bromide (MTT), sesame oil, polyethylene glycol 400 (PEG400) and all solvents (HPLC grade or higher) were purchased from Fisher Scientific (Loughborough, UK).
The prodrugs were tested for their stability and conversion into their corresponding active drug using fasted state simulated intestinal fluid (FaSSIF) with added esterase enzyme activity (20 IU/mL), rat plasma, and postprandial rat lymph. The FaSSIF was prepared as previously described in the literature. The medium was pre-heated to 37 °C prior to the assay for 5 min. […] When the stability of the artificial emulsion-associated prodrugs was tested in plasma, the association of compounds with artificial emulsion was performed prior to stability experiments and the concentrations of the compounds in the associated emulsion were measured. […] Samples were withdrawn at pre-determined time points, and the reaction was terminated by addition of acetonitrile. […] Half-life of active drug release (t1/2) was calculated by the following equation: t1/2 = −0.693/k. […]

[5] = Prodrug conversion assay in postprandial rat lymph; assay type: in vitro ADME; settings: CM-rich postprandial rat lymph, ex vivo; relative to rat plasma
Method: as §1, with “The natural log percentage of the prodrug concentration was plotted against incubation time, and the slope (k) was obtained from the plot.” left out, “All experiments were conducted in triplicate.” left out

C=C(c1ccc(C(=O)OC(COC(=O)CCCCCCCCCCCCCCC)COC(=O)CCCCCCCCCCCCCCC)cc1)c1cc2c(cc1C)C(C)(C)CCC2(C)C [prodrug 13]
conversion to BEX in rat plasma ([1]; in vitro, 10 μM, 37 °C, 4 h, in words): BEX was not released; also recorded: not observed
concentrations of BEX in intestinal lymphatics (MLNs, lymph) relative to plasma ([2]; BEX analyte, dose equivalent to 10 mg/kg BEX, in words): comparable to that in plasma
intact form of prodrug in samples ([2]; plasma, MLN, lymph, any time point): not found in any sample at any time point

C=C(c1ccc(C(=O)OC)cc1)c1cc2c(cc1C)C(C)(C)CCC2(C)C [prodrug 1]
association with human chylomicrons (CM) (human chylomicrons (CM)): equally high affinity to CM

CCOC(=O)/C=C(C)/C=C/C=C(C)/C=C/C1=C(C)CCCC1(C)C [prodrug 26]
association with artificial emulsion [3]: improved association
association with human chylomicrons (CM) (human chylomicrons (CM)): improved association

C=C(c1ccc(C(=O)OC(C(C)C)C(C)C)cc1)c1cc2c(cc1C)C(C)(C)CCC2(C)C [prodrug 18]
conversion to BEX in FaSSIF with esterase [4]: too slow to be detected

C=C(c1ccc(C(=O)OCc2oc(=O)oc2C)cc1)c1cc2c(cc1C)C(C)(C)CCC2(C)C [prodrug 25]
conversion of emulsion-associated form of prodrug in rat plasma ([1]; prodrug incorporated into Intralipid lipid particles, 10 μM, relative to free form): delayed conversion
half-life at 10 μM ([1]; rat, plasma, in vitro, 37 °C, free form, read-out: half-life of active drug release in rat plasma): 8 min
half-life of active drug release in postprandial lymph [5]: prolonged

CC1=C(/C=C/C(C)=C/C=C/C(C)=C/C(=O)OCc2oc(=O)oc2C)C(C)(C)CCC1 [prodrug 27]
association with artificial emulsion [3]: improved association
association with human chylomicrons (CM) (human chylomicrons (CM)): improved association

C=C(c1ccc(C(=O)OCCC)cc1)c1cc2c(cc1C)C(C)(C)CCC2(C)C [prodrug 4]
association with human chylomicrons (CM) (human chylomicrons (CM)): equally high affinity to CM

C=C(c1ccc(C(=O)OCCCCCCCC)cc1)c1cc2c(cc1C)C(C)(C)CCC2(C)C [prodrug 9]
conversion to BEX in FaSSIF with esterase [4]: too slow to be detected

C=C(c1ccc(C(=O)OCCN(C(C)C)C(C)C)cc1)c1cc2c(cc1C)C(C)(C)CCC2(C)C [prodrug 24]
difference in affinity for artificial emulsion versus natural human CM (human chylomicrons (CM)): significant differences
